Results taken from ChEMBL document CHEMBL3886855, “Pyrazine derivatives” (2016).

Key:
Cannabinoid receptor 1 = Cannabinoid receptor 1 (Homo sapiens, UniProt P21554); assay: (§1) cAMP Assay: CHO cells expressing human CB1 or CB2 receptors are seeded 17-24 hours prior to the experiment 50.000 cells per well in a black 96 well plate with flat clear bottom (Corning Costar #3904) in DMEM (Invitrogen No. 31331), 1×HT supplement, with 10% fetal calf serum and incubated at 5% CO2 and 37° C. in a humidified incubator. The growth medium was exchanged with Krebs Ringer Bicarbonate buffer with 1 mM IBMX and incubated at 30° C. for 30 min. Compounds were added to a final assay volume of 100 μl and incubated for 30 min at 30° C. Using the cAMP-Nano-TRF detection kit the assay (Roche Diagnostics) was stopped by the addition of 50 μl lysis reagent (Tris, NaCl, 1.5% Triton X100, 2.5% NP40, 10% NaN3) and 50 μl detection solutions (20 μM mAb Alexa700-cAMP 1:1, and 48 μM Ruthenium-2-AHA-cAMP) and shaken for 2 h at room temperature. The time-resolved energy transfer is measured by a TRF reader (Evotec Technologies GmbH), equipped with a ND:YAG laser as excitation source. The plate is measured twice with the excitation at 355 nm and at the emission with a delay of 100 ns and a gate of 100 ns, total exposure time 10s at 730 (bandwidth 30 nm) or 645 nm (bandwidth 75 nm), respectively.; assay type: functional, cell-based
Cannabinoid receptor 2 = Cannabinoid receptor 2 (Homo sapiens, UniProt P34972); assay: as §1; assay type: functional, cell-based
Chain of Cannabinoid receptor 2 (P34972 whole entry): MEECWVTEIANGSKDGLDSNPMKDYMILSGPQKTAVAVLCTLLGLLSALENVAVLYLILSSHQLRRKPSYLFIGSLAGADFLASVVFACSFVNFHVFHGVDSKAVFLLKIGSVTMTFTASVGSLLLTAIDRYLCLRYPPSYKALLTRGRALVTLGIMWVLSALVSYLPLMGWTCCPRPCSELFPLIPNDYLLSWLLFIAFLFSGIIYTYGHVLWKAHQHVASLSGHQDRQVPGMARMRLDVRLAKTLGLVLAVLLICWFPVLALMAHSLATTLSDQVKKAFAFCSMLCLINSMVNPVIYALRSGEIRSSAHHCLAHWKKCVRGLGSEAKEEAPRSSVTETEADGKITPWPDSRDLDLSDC

Chain of Cannabinoid receptor 1 (P21554 whole entry): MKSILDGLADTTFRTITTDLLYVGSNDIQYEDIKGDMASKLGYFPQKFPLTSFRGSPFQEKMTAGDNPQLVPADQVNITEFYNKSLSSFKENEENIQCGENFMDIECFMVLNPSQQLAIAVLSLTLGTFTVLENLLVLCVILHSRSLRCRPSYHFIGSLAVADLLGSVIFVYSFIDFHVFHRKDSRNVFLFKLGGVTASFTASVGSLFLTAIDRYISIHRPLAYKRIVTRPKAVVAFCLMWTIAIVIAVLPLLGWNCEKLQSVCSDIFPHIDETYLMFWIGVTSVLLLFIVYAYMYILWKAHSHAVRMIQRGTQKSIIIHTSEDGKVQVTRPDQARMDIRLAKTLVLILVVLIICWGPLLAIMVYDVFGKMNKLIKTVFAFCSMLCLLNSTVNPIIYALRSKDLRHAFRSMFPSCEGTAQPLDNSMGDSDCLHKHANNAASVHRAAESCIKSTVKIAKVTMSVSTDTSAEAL

`O=C(NN1CCCCC1)c1cnc(C2CC2)c(OCC2CC2)n1` was tested, and the EC50 (Cannabinoid receptor 1) was > 10000 nM and the EC50 (Cannabinoid receptor 2) was 327 nM.

`CC(C)(O)[C@H](CC1CC1)NC(=O)c1cnc(C2CC2)c(OCC2CC2)n1` was tested, and the EC50 (Cannabinoid receptor 1) was > 10000 nM and the EC50 (Cannabinoid receptor 2) was 198 nM.

For `CNC(=O)C(CC1CCC1)NC(=O)c1cnc(N2CC(F)(F)C2)c(OCC2CC2)n1` (centres undefined), the EC50 (Cannabinoid receptor 1) was > 10000 nM and the EC50 (Cannabinoid receptor 2) was 51.7 nM.

In the case of `O=C(NC1(CO)CCCCC1)c1cnc(N2CC(F)(F)C2)c(OCC2CC2)n1`, the EC50 (Cannabinoid receptor 1) is reported as > 10000 nM and the EC50 (Cannabinoid receptor 2) is reported as 1.8 nM.

For `CC(C)(CCc1ccncc1)NC(=O)c1cnc(C2CC2)c(OCC2CC2)n1`, the EC50 (Cannabinoid receptor 2) was 280 nM.
